Reference: PubChem BioAssay AID2060622 (Molecular Pharmacology Branch, DTP, NCI, 2025)

Test system: 242566-281-R-J2-PDC complex spheroid viability
Experiment: Anticancer human tumor 242566-281-R-J2-PDC patient-derived pancreatic carcinoma cell line growth inhibition [CLK]
Details: for IC50: curve of first compound; for viability, T/C: stronger effect = lower value
Outline: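 Patient-derived tumor cells grown as complex spheroids with HUVEC endothelial cells and mesenchymal stem cells, treated with drug combinations. Concentrations descend in half-log steps from near clinical Cmax, or from 10 microM if Cmax unknown.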

[1] = second compound 0.0316 µM, first compound 0.0316 µM
[2] = second compound 0.0316 µM, first compound 0.1 µM
[3] = second compound 0.0316 µM, first compound 0.316 µM
[4] = second compound 0.0316 µM, first compound 1 µM
[5] = second compound 0.0316 µM, first compound 3.16 µM
[6] = second compound 0.0316 µM, first compound 10 µM
[7] = second compound 0.1 µM, first compound 0.0316 µM
[8] = second compound 0.1 µM, first compound 0.1 µM
[9] = second compound 0.1 µM, first compound 0.316 µM
[10] = second compound 0.1 µM, first compound 1 µM
[11] = second compound 0.1 µM, first compound 3.16 µM
[12] = second compound 0.1 µM, first compound 10 µM
[13] = second compound 0.316 µM, first compound 0.0316 µM
[14] = second compound 0.316 µM, first compound 0.1 µM
[15] = second compound 0.316 µM, first compound 0.316 µM
[16] = second compound 0.316 µM, first compound 1 µM
[17] = second compound 0.316 µM, first compound 3.16 µM
[18] = second compound 0.316 µM, first compound 10 µM
[19] = second compound 1 µM, first compound 0.0316 µM
[20] = second compound 1 µM, first compound 0.1 µM
[21] = second compound 1 µM, first compound 0.316 µM
[22] = second compound 1 µM, first compound 1 µM
[23] = second compound 1 µM, first compound 3.16 µM
[24] = second compound 1 µM, first compound 10 µM
[25] = second compound 3.16 µM, first compound 0.0316 µM
[26] = second compound 3.16 µM, first compound 0.1 µM
[27] = second compound 3.16 µM, first compound 0.316 µM
[28] = second compound 3.16 µM, first compound 1 µM
[29] = second compound 3.16 µM, first compound 3.16 µM
[30] = second compound 3.16 µM, first compound 10 µM
[31] = second compound 10 µM, first compound 0.0316 µM
[32] = second compound 10 µM, first compound 0.1 µM
[33] = second compound 10 µM, first compound 0.316 µM
[34] = second compound 10 µM, first compound 1 µM
[35] = second compound 10 µM, first compound 3.16 µM
[36] = second compound 10 µM, first compound 10 µM
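Note: spheroids exposed to compounds for 7 days before readout.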
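Throughout, for viability, T/C: 100% = DMSO vehicle control wells.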

SMILES: CC(=O)O[C@H]1C(=O)[C@@]2(C)[C@H]([C@H](OC(=O)c3ccccc3)[C@]3(O)C[C@H](OC(=O)[C@H](O)[C@@H](NC(=O)c4ccccc4)c4ccccc4)C(C)=C1C3(C)C)[C@]1(OC(C)=O)CO[C@@H]1C[C@@H]2O + CNC(=O)c1ccc(Nc2nc(OC3CCCC3)c3c(-c4ccc5nc(C)oc5c4)c[nH]c3n2)c(OC)c1
- IC50 (second compound 0.0316 µM): < 31.6 nM
- IC50 (second compound 0.1 µM): > 10000 nM
- IC50 (second compound 0.316 µM): > 10000 nM
- IC50 (second compound 1 µM): > 10000 nM
- IC50 (second compound 3.16 µM): < 31.6 nM
- IC50 (second compound 10 µM): < 31.6 nM
- viability, T/C [1]: 61%
- viability, T/C [2]: 47.7%
- viability, T/C [3]: 42%
- viability, T/C [4]: 41.7%
- viability, T/C [5]: 46%
- viability, T/C [6]: 72.3%
- viability, T/C [7]: 84.7%
- viability, T/C [8]: 66.2%
- viability, T/C [9]: 53.2%
- viability, T/C [10]: 61.9%
- viability, T/C [11]: 70.7%
- viability, T/C [12]: 108%
- viability, T/C [13]: 91.7%
- viability, T/C [14]: 95%
- viability, T/C [15]: 86.2%
- viability, T/C [16]: 92%
- viability, T/C [17]: 115%
- viability, T/C [18]: 94.6%
- viability, T/C [19]: 62.3%
- viability, T/C [20]: 56.6%
- viability, T/C [21]: 52.2%
- viability, T/C [22]: 51.6%
- viability, T/C [23]: 50.7%
- viability, T/C [24]: 56.2%
- viability, T/C [25]: 51%
- viability, T/C [26]: 40.9%
- viability, T/C [27]: 43.1%
- viability, T/C [28]: 45.2%
- viability, T/C [29]: 46.3%
- viability, T/C [30]: 43%
- viability, T/C [31]: 43%
- viability, T/C [32]: 36.4%
- viability, T/C [33]: 43.7%
- viability, T/C [34]: 46.2%
- viability, T/C [35]: 43.4%
- viability, T/C [36]: 44.8%

SMILES: COc1ccc([C@@H](O)c2cc(-c3ncnc4cc(N5CCOCC5)ccc34)c(F)cc2Cl)nn1 + CNC(=O)c1ccc(Nc2nc(OC3CCCC3)c3c(-c4ccc5nc(C)oc5c4)c[nH]c3n2)c(OC)c1
- IC50 (second compound 0.0316 µM): > 10000 nM
- IC50 (second compound 0.1 µM): > 10000 nM
- IC50 (second compound 0.316 µM): > 10000 nM
- IC50 (second compound 1 µM): 1910 nM
- IC50 (second compound 3.16 µM): 129 nM
- IC50 (second compound 10 µM): < 31.6 nM
- viability, T/C [1]: 106%
- viability, T/C [2]: 96.5%
- viability, T/C [3]: 89.5%
- viability, T/C [4]: 141%
- viability, T/C [5]: 92.4%
- viability, T/C [6]: 66.4%
- viability, T/C [7]: 88.9%
- viability, T/C [8]: 103%
- viability, T/C [9]: 89.7%
- viability, T/C [10]: 102%
- viability, T/C [11]: 89.2%
- viability, T/C [12]: 69.9%
- viability, T/C [13]: 91.7%
- viability, T/C [14]: 85.7%
- viability, T/C [15]: 72%
- viability, T/C [16]: 81.1%
- viability, T/C [17]: 76.9%
- viability, T/C [18]: 55%
- viability, T/C [19]: 69.2%
- viability, T/C [20]: 62.6%
- viability, T/C [21]: 57.7%
- viability, T/C [22]: 51.6%
- viability, T/C [23]: 53.1%
- viability, T/C [24]: 36.3%
- viability, T/C [25]: 54.5%
- viability, T/C [26]: 51.9%
- viability, T/C [27]: 47.2%
- viability, T/C [28]: 39.9%
- viability, T/C [29]: 40.2%
- viability, T/C [30]: 33.5%
- viability, T/C [31]: 51.3%
- viability, T/C [32]: 47.5%
- viability, T/C [33]: 46.5%
- viability, T/C [34]: 43.2%
- viability, T/C [35]: 41.9%
- viability, T/C [36]: 32.5%

SMILES: COc1cccc2c1C(=O)c1c(O)c3c(c(O)c1C2=O)CC(O)(C(=O)CO)CC3OC1CC(N)C(O)C(C)O1 (stereo unspecified) + CNC(=O)c1ccc(Nc2nc(OC3CCCC3)c3c(-c4ccc5nc(C)oc5c4)c[nH]c3n2)c(OC)c1
- IC50 (second compound 0.0316 µM): 185 nM
- IC50 (second compound 0.1 µM): 159 nM
- IC50 (second compound 0.316 µM): 102 nM
- IC50 (second compound 1 µM): 31.7 nM
- IC50 (second compound 3.16 µM): < 31.6 nM
- IC50 (second compound 10 µM): < 31.6 nM
- viability, T/C [1]: 86.6%
- viability, T/C [2]: 64.8%
- viability, T/C [3]: 37%
- viability, T/C [4]: 16.4%
- viability, T/C [5]: 6.4%
- viability, T/C [6]: 1.62%
- viability, T/C [7]: 86.8%
- viability, T/C [8]: 64.7%
- viability, T/C [9]: 27.8%
- viability, T/C [10]: 16%
- viability, T/C [11]: 6.66%
- viability, T/C [12]: 1.48%
- viability, T/C [13]: 80.4%
- viability, T/C [14]: 51.2%
- viability, T/C [15]: 15.9%
- viability, T/C [16]: 10.4%
- viability, T/C [17]: 1.13%
- viability, T/C [18]: 1.75%
- viability, T/C [19]: 50.1%
- viability, T/C [20]: 20.2%
- viability, T/C [21]: 6.31%
- viability, T/C [22]: 2.71%
- viability, T/C [23]: 1.6%
- viability, T/C [24]: 1.45%
- viability, T/C [25]: 37.1%
- viability, T/C [26]: 11.2%
- viability, T/C [27]: 3.77%
- viability, T/C [28]: 1.91%
- viability, T/C [29]: 1.71%
- viability, T/C [30]: 1.85%
- viability, T/C [31]: 31.5%
- viability, T/C [32]: 10.5%
- viability, T/C [33]: 3.98%
- viability, T/C [34]: 1.91%
- viability, T/C [35]: 1.68%
- viability, T/C [36]: 2.07%
